In general, Ki refers to the equilibrium dissociation constant of an inhibitor or competing ligand from its target. Read a low Ki as higher affinity.

SMILES strings stand for the structures.

The experiment addresses T1, 5-hydroxytryptamine receptor 1A (Homo sapiens, UniProt P08908).
T1 sequence (P08908 whole entry): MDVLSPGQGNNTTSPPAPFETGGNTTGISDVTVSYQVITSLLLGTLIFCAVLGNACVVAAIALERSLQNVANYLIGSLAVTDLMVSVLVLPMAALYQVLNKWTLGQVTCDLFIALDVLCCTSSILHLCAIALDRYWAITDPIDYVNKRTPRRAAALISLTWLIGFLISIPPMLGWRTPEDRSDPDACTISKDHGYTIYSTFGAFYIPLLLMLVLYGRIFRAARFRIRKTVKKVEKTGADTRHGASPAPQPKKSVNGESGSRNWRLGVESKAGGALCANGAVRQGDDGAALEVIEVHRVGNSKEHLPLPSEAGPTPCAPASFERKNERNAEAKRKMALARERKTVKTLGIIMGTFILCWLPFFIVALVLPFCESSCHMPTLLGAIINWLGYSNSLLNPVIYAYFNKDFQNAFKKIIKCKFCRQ
In words: biochemical.
Description: Displacement of [3H]8-OH-DPAT from human recombinant 5HT1A receptor expressed in HEK293 cells after 120 mins
In turn, `COc1ccccc1N1CCN(CCCN2C(=O)c3cccc4c(N)ccc(c34)C2=O)CC1` gave a Ki of 116 nM.

Compound `COc1ccccc1N1CCN(CCN2C(=O)c3ccc(N(C)C)cc3C2=O)CC1` registered a Ki of 15 nM.

With `COc1ccccc1N1CCN(CCCN2C(=O)c3ccc(N(C)C)cc3C2=O)CC1`, the Ki was 0.47 nM.

Take `COc1ccccc1N1CCN(CCCCCN2C(=O)c3ccc(N(C)C)cc3C2=O)CC1`: the affinity corresponds to a Ki of 7.8 nM.

In turn, `COc1ccccc1N1CCN(CCNS(=O)(=O)c2cccc3c(N(C)C)cccc23)CC1` yielded a Ki of 73 nM.

With `COc1ccccc1N1CCN(CCCCN2C(=O)c3cccc4c(N)ccc(c34)C2=O)CC1`, the Ki amounted to 6.8 nM.

`COc1ccccc1N1CCN(CCCNS(=O)(=O)c2cccc3c(N(C)C)cccc23)CC1` showed a Ki of 29 nM.

For `COc1ccccc1N1CCN(CCCCNS(=O)(=O)c2cccc3c(N(C)C)cccc23)CC1`, the Ki was 151 nM.

Turning to `COc1ccccc1N1CCN(CCCCCNS(=O)(=O)c2cccc3c(N(C)C)cccc23)CC1`, the affinity corresponds to a Ki of 54 nM.

`COc1ccccc1N1CCN(CCCCCN2C(=O)c3cccc4c(N)ccc(c34)C2=O)CC1` came in with a Ki of 0.67 nM.

`COc1ccccc1N1CCN(CCN2C(=O)c3cccc4c(N)ccc(c34)C2=O)CC1`: the Ki is 44 nM.

`COc1ccccc1N1CCN(CCCCN2C(=O)c3ccc(N(C)C)cc3C2=O)CC1` yielded a Ki of 0.5 nM.
